How the values were obtained:
Assay type in all cases: cell-based
[1] = system: human umbilical vein endothelial cells; experiment: Phase contrast micrographs of human umbilical vein endothelial cells co-incubated with KML4A cells; conditions: after 22 hours; thrombin 2 U/ml 16 hours, with or without TP508 50 μg/ml 8 hours pretreatment
Source text: Photomicrographs were captured at various times after addition of KML4A cells using an inverted Leitz Diavert microscope (original magnification, 200×) equipped with Spot Idea™ digital camera (Diagnostic Instruments, Inc.). Micrographs were taken at the center of each well to avoid any differences in original cell density.

[2] = system: human umbilical vein endothelial cells; experiment: Transendothelial migration of KML4A tumor cells through human umbilical vein endothelial cell monolayer; conditions: thrombin 2 U/ml for 24 hours; migration after 18 hr
Source text: In this experiment, as in Example 1, KML4A tumor cells derived from a human colon cancer and selected for repeated metastasis to the liver (Morikawa et al., supra) were harvested from established cultures and labeled with fluorescent CytoTracker™ (Cell Biolabs, inc.) and re-established as a uniform cell suspension. Human endothelial cell monolayers were established in transmembrane inserts supplied by Cell Biolabs, Inc., by plating 50,000 human umbilical vein endothelial cells (Cambrex BioScience; Walkersville, Md.) per insert and culturing them in endothelial cell basal medium (EBM) with 2% fetal bovine serum (FBS) and growth factors (SingleQuots™, Clonetics, San Diego, Calif.) in 5% CO2 at 37° C. for three days. […] Fluorescently labeled KML4A tumor cells (35,000 cells per insert in serum-free medium containing 1% bovine serum albumin) were then added to the culture inserts and the inserts placed into wells of a 24-well tissue culture plate (BD Falcon) with 0.5 ml of growth medium containing 10% fetal bovine serum to act as a chemoatractant for the tumor cells. The number of cells migrating through the filter inserts to the filter bottom was determined 18 hr later by measuring the fluorescence of material recovered from the filter bottom using a SyQuest BioLabs Fluorescent Plate Reader (480 nm/529 nm). Data is expressed as Relative Fluorescence Units.

[3] = system: human microvascular endothelial cells; experiment: Phase contrast micrographs of human microvascular endothelial cells co-incubated with KML4A cells; conditions: after 22 hours; TP508 50 μg/ml 8 hours pretreatment; thrombin 2 U/ml or TNF alpha 5 ng/ml 16 hours
Method: Human microvascular endothelial cells (Cambrex BioScience; Walkersville, Md.) were plated on 48-well tissue culture plates (BD Falcon) 30,000 cells per well, and cultured in endothelial cell basal medium (EBM) with 2% fetal bovine serum (FBS) and growth factors (SingleQuots™, Clonetics, San Diego, Calif.) in 5% CO2 at 37° C. for three days. […] Photomicrographs were captured at various times after addition of KML4A cells using an inverted Leitz Diavert microscope (original magnification, 200×) equipped with Spot Idea™ digital camera (Diagnostic Instruments, Inc.). Micrographs were taken at the center of each well to avoid any differences in original cell density.

snail homolog 3 (SNAI3) = experiment: Gene array analysis of SNAI3 expression in human coronary artery endothelial cells; conditions: TNF alpha 5 ng/ml, 6 hours
Method: (§1) Human coronary artery endothelial cells (Cambrex BioScience; Walkersville, Md.) were split into T-75 flasks (BD Falcon) and cultured in endothelial cell basal medium (EBM) with 2% fetal bovine serum (FBS) and growth factors (SingleQuotsTM, Clonetics, San Diego, Calif.) in 5% CO2 at 37° C. […] After 6 hours of incubation, total RNA was isolated using RNAqueous kits (Ambion, Austin, Tex.) as described by the manufacturer. mRNA samples were reverse-transcribed using Taqman Reverse Transcription Reagents Kits (Applied Biosystems, Inc.) and analyzed by gene array analysis using […] plus 2 chip sets (Affimetrix).

[4] = system: bone morphogenetic protein 9 (BMP9); experiment: Gene array analysis of BMP9 expression in human coronary artery endothelial cells; conditions: TP508 50 μg/ml or TNF alpha 5 ng/ml, 6 hours
Method: Human coronary artery endothelial cells (Cambrex BioScience; Walkersville, Md.) were split into T-75 flasks (BD Falcon) and cultured in endothelial cell basal medium (EBM) with 2% fetal bovine serum (FBS) and growth factors (SingleQuotsTM, Clonetics, San Diego, Calif.) in 5% CO2 at 37° C. […] All procedures and analysis of gene array data were performed in the UTMB Molecular Genomics and MicroArray Core Facility.

[5] = system: metastasis associated in colon cancer 1 (MACC1); experiment: Gene array analysis of MACC1 mRNA in human coronary artery endothelial cells; conditions: TNF alpha 5 ng/ml, 6 hours
Method: as §1, with “(Affimetrix). All procedures and analysis of gene array data were performed in the UTMB Molecular Genomics and MicroArray Core Facility.” for “(Affimetrix).”

[6] = system: bovine aortic endothelial cells; experiment: Binding of KML4A colon cancer cells to bovine aortic endothelial cell monolayers; conditions: TNF alpha 50 ng/ml for 24 hours; binding after 30 minutes
Method: In this experiment, bovine aortic endothelial cells (BAEC; Cambrex BioScience; Walkersville, Md.) were plated in 24-well plastic tissue culture plates (BD Falcon™) at a density of 35,000 cells per cm^2 and cultured in endothelial cell basal medium (EBM) with 2% fetal bovine serum (FBS) and growth factors (SingleQuots™, Clonetics, San Diego, Calif.) in 5% CO2 at 37° C. for three days. BAEC monolayer cultures were then pretreated with saline (Control) or TP508 (TP) and then treated with saline or TNF alpha (TNF, 50 ng/ml) for 24 hours. KML4A cells were labeled with fluorescent CytoTracker™ as described in Example 1 above and added to the BAEC monolayers in EBM medium complete with fetal bovine serum and SingleQuot growth factor supplements (30,000 cells per well). After thirty (30) minutes, the cell monlayers were rinsed two times to remove unbound KML4A cells and the monolayers were solubilized using 200 μl of Cell Solubilizing Solution (Cell Biolabs, Inc.). Fluorescence of the solubilized KML4A that had bound to the endothelial cells was measured by transferring aliquots of the solubilized monolayers to 96-well black plates and reading them in a SyQuest BioLabs Fluorescent Plate Reader (480 nm/520 nm). Data is expressed as Relative Fluorescence Units.

[7] = system: melanoma cell adhesion molecule (MCAM); experiment: Gene array analysis of MCAM expression in human coronary artery endothelial cells; conditions: TNF alpha 5 ng/ml, 6 hours
Method: as §1, with “(Affimetrix). All procedures and analysis of gene array data were performed in the UTMB Molecular Genomics and MicroArray Core Facility.” for “(Affimetrix).”

Substance | endothelial cells remaining after co-incubation with KML4A cells [1] | effect on KML4A transedothelial migration [2] | endothelial cell damage and loss after co-incubation with KML4A cells [3] | effect on endothelial cell expression of SNAI3 (snail homolog 3 (SNAI3)) | effect on expression of BMP9 [4] | effect on endothelial cell expression of MACC1 mRNA [5] | increase of binding of KML4A cells [6] | effect on endothelial cell expression of MCAM [7]
Thrombin | few if any remaining endothelial cells | increased transedothelial migration | damaged and released from the culture substrate |  |  |  |  | 
TNF alpha |  |  | damaged and released from the culture substrate | increases endothelial cell expression of SNAI3 | does not | increases endothelial cell expression of MACC1 | approximately 8 fold | increases endothelial cell expression of MCAM

Source: US20110319340A1, “METHODS FOR TREATING CANCER” (The Board of Regents, The University of Texas System, priority 2008, published 2011)
